Measured values published in patent US9072741B2, “Methods of treating liver fibrosis and pre-cirrhosis with epidermal growth factor receptor inhibitors” (The General Hospital Corporation, priority 2009, dated 2015).

Assays:
Type in all cases: in vivo, male Wistar rats
[1] = tested on: DEN-induced liver fibrosis/cirrhosis; experiment: DEN-induced rat model: fibrosis/cirrhosis by Ishak score of Masson's trichrome stained liver sections; conditions: for mode of Ishak score: vehicle mode 6; for range of Ishak score: vehicle range 2-6
Protocol: FIG. 2A is a bar graph depicting the Ishak score of male Wistar rats receiving weekly intraperitoneal injections of DEN (50 mg/kg) for 18 weeks and vehicle only (n=16), 0.5 mg/kg erlotinib (Erl 0.5; n=8), or 2 mg/kg erlotinib (Erl 2; n=8) during weeks 12-18.
FIG. 6A is a bar graph depicting the Ishak score of male Wistar rats receiving weekly intraperitoneal injections of DEN (50 mg/kg) for 18 weeks and vehicle only (n=8) or 18 mg/kg lapatinib (n=8) during weeks 12-18. *, significant.
(§1) Erlotinib is a drug used to treat non-small cell lung cancer and pancreatic cancer. Erlotinib specifically targets the EGFR, which is highly expressed and occasionally mutated in various forms of cancer, by binding to the adenosine triphosphate (ATP) binding site of the receptor (Raymond et al., Drugs 60 Suppl 1:15-23, 2000). To investigate erlotinib as a chemoprevention strategy for liver fibrogenesis, male Wistar rats were given a weekly intraperitoneal injection of 50 mg/kg DEN to induce cirrhosis and HCC (Lee et al., Korean J Hepatol 13:70-80, 2007). Erlotinib was administered by intraperitoneal injection daily (5× a week) during weeks 12-18 at a dose of 2 mg/kg, which is equivalent to chemotherapeutic dosing regimens in humans. […] In a separate study, the dose of erlotinib was lowered to 0.5 mg/kg.
(§2) Repeated injury to the liver causes damage to hepatocytes and activates resident macrophages called Kupffer cells. Damaged hepatocytes and activated Kupffer cells secrete cytokines and growth factors into the liver milieu, which activate hepatic stellate cells (Friedman, Gastroenterology 134:1655-69, 2008). Normally, hepatic stellate cells are quiescent and store vitamin A and fat. Upon activation, they differentiate into a myofibroblast-phenotype and express α-smooth muscle actin (α-SMA) (Friedman, Gastroenterology 134:1655-69, 2008). Activated hepatic stellate cells deposit fibrous collagen into the space of Disse acutely causing fibrosis and chronically causing cirrhosis. The degree of liver disease (fibrosis versus cirrhosis) is pathologically assessed through trichrome staining of collagen by the method of Ishak (Mod Pathol 7:690-713, 1994).
In early stages of liver fibrosis, collagen deposition is localized around the portal tracts (Ishak score 1 or 2), but it bridges between portal tracts at later stages of fibrosis (Ishak score 3 or 4) and ultimately forms nodules around regenerating hepatocytes during cirrhosis (Ishak score 5 or 6). Although there is some heterogeneity in this model, intraperitoneal administration of DEN causes, on average, an Ishak score 0.8 (range 0-2) fibrosis after 8 weeks, an Ishak score 4.1 (range 3-6) fibrosis/cirrhosis after 12 weeks, and an Ishak score 5.1 (range 4-6) cirrhosis after 18 weeks. Consistent with this, hepatic stellate cell activation increases over time after DEN administration as assessed by α-SMA staining.
Remarkably, erlotinib inhibited fibrogenesis. […] The range for 16 vehicle animals was 2-6 with a mode of 6 as illustrated in FIG. 2B. […] To further examine the effects of erlotinib on liver fibrosis, α-SMA staining was performed for activated hepatic stellate cells.
(§3) To investigate lapatinib as a chemoprevention strategy for liver fibrogenesis, male Wistar rats were given a weekly intraperitoneal injection of 50 mg/kg DEN to induce cirrhosis and HCC (Lee et al., Korean J Hepatol 13:70-80, 2007). Lapatinib was administered by intraperitoneal injection daily (5× a week) during weeks 12-18 at a dose of 18 mg/kg.
Similar to erlotinib, lapatinib inhibited fibrogenesis. […] To further examine the effects of lapatinib on liver fibrosis, α-SMA staining was performed for activated hepatic stellate cells.

[2] = tested on: DEN-induced cirrhosis and HCC; experiment: DEN-induced rat model of cirrhosis and HCC: tumor formation (tumor nodules) and gross liver appearance; conditions: for decrease of tumor formation: vs vehicle
Protocol: FIG. 1A is a bar graph depicting the number of tumor nodules in male Wistar rats receiving weekly intraperitoneal injections of 50 mg/kg diethylnitrosamine (DEN) for 18 weeks and vehicle only (n=16), 0.5 mg/kg erlotinib (Erl 0.5; n=8), or 2 mg/kg erlotinib (Erl 2; n=8) during weeks 12-18.
FIG. 5A is a bar graph depicting the number of tumor nodules in male Wistar rats receiving weekly intraperitoneal injections of 50 mg/kg DEN for 18 weeks and vehicle only (n=8) or 18 mg/kg lapatinib (n=8) during weeks 12-18. *, significant.
Given the lack of successful treatment options for HCC, chemoprevention in high-risk patients has been proposed as an alternative strategy (Llovet et al., Lancet 362:1907-17, 2003). Even though EGFR inhibition is not effective for chemotherapy, the data presented herein indicate that it is likely to be a good chemoprevention strategy. The diethylnitrosamine (DEN)-induced rat model of sequential cirrhosis and HCC has emerged as a promising tool for not only studying the course of chronic liver disease but also for testing putative chemopreventive agents as it better resembles disease progression in humans (Lee et al., Korean J Hepatol 13:70-80, 2007; Schiffer et al., Hepatology 41:307-14, 2005). In this model, DEN induces liver cirrhosis after 12 weeks and HCC at approximately 18 weeks allowing ample opportunity for preventative intervention.
as §1, §2, §3

[3] = tested on: activated hepatic stellate cells; experiment: α-SMA staining of liver sections for activated hepatic stellate cells in DEN-treated rats
Protocol: FIGS. 2B-2G are a series of six panels showing representative pictures of Masson's trichome (B-D) and α-SMA stains (E-G) of liver sections from rats receiving weekly intraperitoneal injections of DEN (50 mg/kg) for 18 weeks and (B and E) vehicle only, (C and F) 0.5 mg/kg erlotinib (Erl 0.5), or (D and G) 2 mg/kg erlotinib (Erl 2) during weeks 12-18.
FIGS. 6B-6E are a series of four panels showing representative pictures of Masson's trichrome (B-C) and α-SMA stains (D-E) of liver sections from rats receiving weekly intraperitoneal injections of DEN (50 mg/kg) for 18 weeks and (B and D) vehicle only or (C and E) 18 mg/kg lapatinib during weeks 12-18.
as §2, with “Activated hepatic stellate cells deposit fibrous collagen into the space of Disse acutely causing fibrosis and chronically causing cirrhosis.” left out, “1994). […]” for “1994).”

Structure (SMILES) | average Ishak score ([1]; 0.5 mg/kg weeks 12-18, n=8, vehicle 4.9) | mode of Ishak score ([1]; 0.5 mg/kg weeks 12-18) | range of Ishak score ([1]; 0.5 mg/kg weeks 12-18) | average Ishak score ([1]; 2 mg/kg weeks 12-18, n=8, vehicle 4.9) | mode of Ishak score ([1]; 2 mg/kg weeks 12-18) | range of Ishak score ([1]; 2 mg/kg weeks 12-18) | inhibition of tumor formation ([2]; 0.5 mg/kg i.p. daily weeks 12-18, DEN 50 mg/kg weekly for 18 weeks, separate study) [%] | decrease of tumor formation ([2]; 2 mg/kg i.p. daily (5x a week) weeks 12-18, DEN 50 mg/kg weekly for 18 weeks) [%] | gross appearance of livers ([2]; 0.5 and 2 mg/kg weeks 12-18 (FIGS. 1C, 1D) vs vehicle) | activation of hepatic stellate cells (α-SMA staining) ([3]; 0.5 and 2 mg/kg weeks 12-18 vs vehicle) | average Ishak score ([1]; 18 mg/kg weeks 12-18, n=8, vehicle 5.6) | decrease of tumor formation ([2]; 18 mg/kg i.p. daily (5x a week) weeks 12-18, DEN 50 mg/kg weekly for 18 weeks) | gross appearance of livers ([2]; 18 mg/kg weeks 12-18 (FIG. 5C) vs vehicle) | activation of hepatic stellate cells (α-SMA staining) ([3]; 18 mg/kg weeks 12-18 vs vehicle)
C#Cc1cccc(Nc2ncnc3cc(OCCOC)c(OCCOC)cc23)c1 [erlotinib, 4-Quinazolinamine, N-(3-ethynylphenyl)-6,7-bis(2-methoxyethoxy)] | 4.3 | 4 | 3-6 | 2.6 | 2 | 1-4 | 49 | 75 | not only exhibited less tumors, but also appeared less cirrhotic | dramatically decreased the activation of hepatic stellate cells in a dose-dependent fashion |  |  |  | 
CS(=O)(=O)CCNCc1ccc(-c2ccc3ncnc(Nc4ccc(OCc5cccc(F)c5)c(Cl)c4)c3c2)o1 [lapatinib, 4-Quinazolinamine, N-(3-chloro-4-((3-fluorophenyl)methoxy)phenyl)-6-(5-(((2-(methylsulfonyl)ethyl)amino)methyl)-2-furanyl)] |  |  |  |  |  |  |  |  |  |  | 4.3 | greater than 50% | not only exhibited less tumors, but also appeared less cirrhotic | dramatically decreased the activation of hepatic stellate cells in a dose-dependent fashion
